Laboratory results from US10166237B2, “Compounds and methods for inducing chondrogenesis” (The Scripps Research Institute, priority 2011, dated 2019).
Like-named read-outs stand apart in the source and are kept apart here.

Legend:
FLNA/PEBP2β = target: T1, FLNA/PEBP2β (Homo sapiens, UniProt P21333); test: immunoprecipitation and Western blotting of FLNA/PEBP2β interaction in hMSCs; format: cell-based; settings: 12 hr treatment
T1 construct: endogenous in cells; host or cells: hMSCs (primary human mesenchymal stem cells)
Method: hMSCs were treated with […] for 12 hr and lysed as above. 2 μg of anti-PEBP23 antibody was added to the cell lysate and incubated overnight at 4° C. prior to addition of agarose beads bearing immobilized protein A/G. After incubation of the lysate with the protein A/G beads for 1 hour, the beads were collected by centrifugation at 2,000 rpm and washed 3 times with lysis buffer. 30 μL of 2×SDS sample buffer was added to the beads and boiled for 5 min.

FLNA = target: T2, FLNA (Homo sapiens, UniProt P21333); test: photo-crosslinking of biotin-PRO1-azide in hMSCs, competition with PRO1, proteomics; format: binding
T2 construct: endogenous in cells; host or cells: hMSCs (primary human mesenchymal stem cells)
T2 sequence (P21333 whole entry): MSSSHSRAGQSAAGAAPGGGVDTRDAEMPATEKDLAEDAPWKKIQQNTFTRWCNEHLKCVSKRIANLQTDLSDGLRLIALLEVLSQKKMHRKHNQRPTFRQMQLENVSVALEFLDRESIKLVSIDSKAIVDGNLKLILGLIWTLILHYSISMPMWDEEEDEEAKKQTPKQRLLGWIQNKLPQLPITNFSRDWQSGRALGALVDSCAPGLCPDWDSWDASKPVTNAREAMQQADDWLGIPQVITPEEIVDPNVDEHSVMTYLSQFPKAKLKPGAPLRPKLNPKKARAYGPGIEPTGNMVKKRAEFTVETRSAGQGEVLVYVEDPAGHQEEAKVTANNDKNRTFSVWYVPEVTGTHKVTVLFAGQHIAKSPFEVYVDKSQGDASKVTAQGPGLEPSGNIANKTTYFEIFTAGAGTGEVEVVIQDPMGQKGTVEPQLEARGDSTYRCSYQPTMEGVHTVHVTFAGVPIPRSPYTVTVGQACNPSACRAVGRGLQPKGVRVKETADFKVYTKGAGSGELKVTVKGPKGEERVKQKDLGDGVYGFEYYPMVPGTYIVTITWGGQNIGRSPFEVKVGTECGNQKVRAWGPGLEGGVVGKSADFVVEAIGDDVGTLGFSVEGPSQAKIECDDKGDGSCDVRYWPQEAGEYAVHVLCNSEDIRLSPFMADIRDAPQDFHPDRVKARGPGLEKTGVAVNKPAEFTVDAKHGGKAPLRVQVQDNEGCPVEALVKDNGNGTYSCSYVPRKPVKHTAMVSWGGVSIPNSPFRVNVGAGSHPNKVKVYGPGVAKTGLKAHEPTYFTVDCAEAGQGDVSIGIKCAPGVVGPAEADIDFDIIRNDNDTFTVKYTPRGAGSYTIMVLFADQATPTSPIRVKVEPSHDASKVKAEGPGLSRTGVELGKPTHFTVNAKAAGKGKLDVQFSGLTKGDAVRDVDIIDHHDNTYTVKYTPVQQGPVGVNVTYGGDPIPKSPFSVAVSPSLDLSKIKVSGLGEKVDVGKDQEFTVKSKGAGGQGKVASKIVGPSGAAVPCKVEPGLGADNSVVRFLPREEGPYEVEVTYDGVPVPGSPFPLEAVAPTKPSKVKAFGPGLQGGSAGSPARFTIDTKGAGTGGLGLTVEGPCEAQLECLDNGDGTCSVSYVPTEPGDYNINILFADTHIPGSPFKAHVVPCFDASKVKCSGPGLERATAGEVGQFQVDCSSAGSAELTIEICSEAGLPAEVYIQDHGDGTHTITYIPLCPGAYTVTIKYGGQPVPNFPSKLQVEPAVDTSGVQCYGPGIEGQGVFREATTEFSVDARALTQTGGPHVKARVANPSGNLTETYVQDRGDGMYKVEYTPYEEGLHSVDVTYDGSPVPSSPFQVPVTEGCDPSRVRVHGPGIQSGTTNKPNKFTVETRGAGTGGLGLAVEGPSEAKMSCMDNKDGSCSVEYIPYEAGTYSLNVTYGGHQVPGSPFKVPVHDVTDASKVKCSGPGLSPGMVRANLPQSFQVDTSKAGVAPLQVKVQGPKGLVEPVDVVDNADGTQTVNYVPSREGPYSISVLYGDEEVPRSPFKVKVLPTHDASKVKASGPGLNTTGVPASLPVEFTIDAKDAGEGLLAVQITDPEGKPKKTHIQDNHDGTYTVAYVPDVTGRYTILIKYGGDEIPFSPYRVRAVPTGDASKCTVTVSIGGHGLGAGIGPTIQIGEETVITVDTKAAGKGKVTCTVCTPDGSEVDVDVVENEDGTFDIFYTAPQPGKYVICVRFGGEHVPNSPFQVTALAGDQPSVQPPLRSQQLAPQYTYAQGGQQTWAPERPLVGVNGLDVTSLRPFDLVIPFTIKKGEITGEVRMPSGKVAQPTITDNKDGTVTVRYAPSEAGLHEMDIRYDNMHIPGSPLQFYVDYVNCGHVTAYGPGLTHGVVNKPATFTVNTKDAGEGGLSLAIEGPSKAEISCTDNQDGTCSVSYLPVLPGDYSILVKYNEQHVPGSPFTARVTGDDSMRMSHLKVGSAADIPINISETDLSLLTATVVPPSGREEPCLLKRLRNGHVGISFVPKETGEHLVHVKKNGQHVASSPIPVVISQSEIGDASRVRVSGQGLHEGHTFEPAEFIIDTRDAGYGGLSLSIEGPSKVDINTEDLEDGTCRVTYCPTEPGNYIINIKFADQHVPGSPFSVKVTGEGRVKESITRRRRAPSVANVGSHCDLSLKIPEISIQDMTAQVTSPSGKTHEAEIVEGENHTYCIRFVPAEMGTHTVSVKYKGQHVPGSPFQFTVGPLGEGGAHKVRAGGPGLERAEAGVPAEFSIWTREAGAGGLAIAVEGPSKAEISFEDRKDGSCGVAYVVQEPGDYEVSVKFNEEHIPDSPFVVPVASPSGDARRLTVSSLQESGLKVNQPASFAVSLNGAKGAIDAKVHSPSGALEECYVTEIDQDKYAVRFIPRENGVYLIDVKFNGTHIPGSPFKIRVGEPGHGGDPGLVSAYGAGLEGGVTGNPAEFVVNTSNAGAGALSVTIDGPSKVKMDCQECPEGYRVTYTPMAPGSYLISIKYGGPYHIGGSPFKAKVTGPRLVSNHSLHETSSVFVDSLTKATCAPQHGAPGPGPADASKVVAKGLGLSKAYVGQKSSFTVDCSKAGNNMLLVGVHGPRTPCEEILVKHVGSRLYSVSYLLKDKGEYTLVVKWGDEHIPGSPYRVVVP
Method: To identify the interaction of PRO1 and FLNA, 5 μM biotin-PRO1-azide was added to hMSCs in the differentiation media in the absence or presence of a 50-fold molar excess of PRO1 and incubated for 30 min. 254-nm light was applied to the cells for another 30 min. Cells were lysed in lysis buffer (20 mM Tris-HCl, pH=7.4, 150 mM NaCl, 1 mM EDTA, 1 mM DTT, 0.5% v/v Triton X-100, protease inhibitor cocktail), passed through 26 1/2 gauge needles 20 times, and centrifuged at 12,000 rpm for 30 min. The supernatant was subjected to ammonium sulfate precipitation fractionation. Fractions were analyzed by Western blotting using an anti-biotin antibody (FIG. 6A). Fractions containing 20-40% ammonium sulfate were precipitated using trichloroacetic acid (TCA) and resuspended in isoelectric focusing sample buffer and subjected to 2D SDS-PAGE and Western blotting against biotin. Proteins specifically labeled by biotin-PRO1-azide were recognized, and the corresponding spots on a parallel gel visualized by silver staining were excised. These proteins were identified by mass spectrometry proteomics analysis. hMSCs were treated in monolayer or pellet culture (as indicated in FIG. 6B-6C) for 24-72 hrs. 15 μg of protein was separated by SDS-PAGE and hMSCs were fractionated (as indicated in FIG. 6B-6C) into cytosolic and nuclear fractions or monomeric and filamentous components as previously described.

[1] = system: human mesenchymal stem cells (hMSCs); test: chondrogenic nodule formation by hMSCs (high throughput screen); format: cell-based
In short: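 Primary hMSCs (10^4/well) in serum-free DMEM exposed to compounds at 5 μM for 4 days. Chondrogenic nodules stained with Nile red (binds collagens) and counted by high-content imaging with 488 laser excitation. In 96-well follow-up, 50,000 cells/well treated 4 days, formalin-fixed, stained with 1 μg/ml Rhodamine B.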

protein interactions between FLNA and PEBP2β (FLNA/PEBP2β): Inhibits the Protein Interactions | interaction with FLNA (FLNA): Interacts with FLNA | EC50 ([1]; Homo sapiens, Mesenchymal stem cells, 96 h, primary screen, Nile red stained nodules, 4 days, read-out: EC50): 0.1 µM | EC50 ([1]; first value of the cell (before the slash), read-out: CHONDROGENIC μM EC50): 0.225 µM
Structure (SMILES): O=C(O)c1ccccc1C(=O)Nc1ccc(-c2ccccc2)cc1 [AKT]
cartilage nodule formation ([1]; 100 nM, 4 days, Rhodamine B stain): Rapid Phenotypic Cartilage Nodule Formation
